Data as given in patent publication US8071099B2, “Anti-FLT3 antibodies” (ImClone, LLC, priority 2008, dated 2011).

Tests used:
[1] = test system: SEM-K2 cells; assay: Combination therapy with EB10 and MTX in SEM-K2 Leukemia Model; assay type: in vivo, NOD/SCID mice; conditions: EB10 10 mg/kg i.p. 2×/week; MTX 100 mg/kg Q7D; combination of both
Method: One day prior to the start of treatment, i.v. inject 65, 7 weeks old, male NOD/SCID mice with 5×10^5 SEM-K2 cells suspended in PBS in a total volume of 200 μl. Drop from the study mice receiving less than 90% of cells intravenously.
Prepare MTX (Sigma Chemical, Cat # M9929) in USP Saline at a concentration of 10 mg/ml and dose Q7D for three cycles. […] Dose all mice at 10 ml/kg i.p. In the combination group, dose MTX at least one hour before EB 10 treatment starting on day 1. Record mouse survival daily. Follow the mice for survival, and sacrifice any mouse displaying signs of morbidity/mortality; mark as dead on the day of sacrifice. End the study on day 168 and sacrifice any mice surviving to that point. Compare survival in the treatment groups by Log Rank Test between treatment groups.

[2] = test system: FLT3-negative JM1 or BaF3-control cell lines; assay: Flow cytometric analysis, FLT3-negative cell lines; assay type: binding
[3] = test system: BaF3-ITD cells; assay: Cell proliferation assay ([3H]-thymidine), FL-independent, BaF3-ITD; assay type: cell-based
Method: Harvest EOL-1 cells and wash three times using serum-free RPMI 1640 medium. Culture cells in serum-free RPMI 1640 medium for 12 hours. For BaF3-ITD cells, perform the proliferation assay in RPMI 1640 medium supplemented with 10% FCS in the absence of exogenous FL. Reconstitute cells in serum-free AIM-V medium, plate in triplicates in a flat-bottomed 96-well plate (1×104/100 μl/well) and incubate with varying concentrations of antibodies (from 0 to 100 nM) and 30 ng/ml of FL at 37° C. for 68 hours. As a background control, incubate cells with medium alone in the absence of exogenous FL. Pulse cells with 0.25 μCi/well of [^3H]-thymidine for 4 hours. Harvest cells and measure cpm in a PerkinElmer Wallace-1205 Betaplate Liquid Scintillation Counter (Wellesley, Mass.). Calculate the percent inhibition of FL-induced proliferation for EOL-1 cells; deduce the cpm of background proliferation (i.e., cell samples not stimulated with FL) from the cpm of all experimental samples. Calculate percent inhibition using the following formula: [(cpm of untreated sample—cpm of antibody-treated sample)/cpm of untreated sample]×100%.

[4] = test system: EOL-1 leukemia cells; assay: EOL-1 Xenograft Human AML Leukemia Model; assay type: in vivo, NOD-SCID mice; conditions: 10 μg
[5] = test system: Human Leukemia Cells; assay: Bone Marrow Engraftment of Human Leukemia Cells; assay type: in vivo, mice; conditions: 500 μg/dose, versus control-IgG treated group
Method: Bone Marrow Engraftment of Human Leukemia Cells: Harvest bone marrow from the femurs of EB10-treated mice (500 μg/dose) and the control-IgG treated group at day 20. Analyze cells for human CD45 by flow cytometry at 6 and 14 weeks post leukemia cell injection for the degree of tumor cell infiltration of bone marrow. Compare the degree of tumor cell infiltration of bone marrow using immunohistochemical staining with a fluorescence-labeled anti-human CD45 antibody.

CN(Cc1cnc2nc(N)nc(N)c2n1)c1ccc(C(=O)N[C@@H](CCC(=O)O)C(=O)O)cc1 [MTX, methotrexate, reference compound]
mouse survival [1]: also prolonged survival

EB10: recombinant human monoclonal antibody, full length IgG1κ targeting human FLT3; heavy chain SEQ ID NO:25, light chain SEQ ID NO:28
binding by flow cytometric analysis ([2]; BaF3-control cell line): No binding | binding by flow cytometric analysis ([2]; FLT3-negative JM1 cell line): No binding | % Inhibition of FL-independent proliferation (Mean ± Standard deviation) ([3]; 6 nM): 9.6 ± 3.1% | % Inhibition of FL-independent proliferation (Mean ± Standard deviation) ([3]; 13 nM): 13.0 ± 4.0% | % Inhibition of FL-independent proliferation (Mean ± Standard deviation) ([3]; 25 nM): 23.3 ± 0.6% | % Inhibition of FL-independent proliferation (Mean ± Standard deviation) ([3]; 50 nM): 28.6 ± 3.1% | % Inhibition of FL-independent proliferation (Mean ± Standard deviation) ([3]; 100 nM): 29.2 ± 3.0% | effect on survival [4]: No effect | number of tumor cells in bone marrow (human CD45) [5]: decreased significantly | mouse survival [1]: significantly prolonged mouse survival
